Experiments:
Assay in all cases: NCI 60 growth inhibition
Assay type in all cases: cell-based, human
OVCAR-8 = details: OVCAR-8, Ovarian Cancer
Method: (§1) The above triazole derivatives of melampomagnolide B were evaluated for growth inhibitory properties against an NCI panel of 60 human cancer cell lines derived from nine human cancer cell types, grouped into disease sub-panels that represent leukemia, lung, colon, central nervous system (CNS), melanoma, renal, ovary, breast, and prostate cancer cells. Growth inhibitory (GI50) effects were measured as a function of the variation of optical density as a percentage of control.

CCRF-CEM = details: Leukemia
Method: as §1

UO-31 = details: UO-31, Renal Cancer
Method: as §1

SF-295 = details: SF-295, CNS Cancer
Method: as §1

HCT-116 = details: HCT-116, Colon Cancer
Method: as §1

NCI-H460 = details: NCI-H460, Non-Small Cell Lung Cancer
Method: as §1

HL-60(TB) = details: Leukemia
Method: as §1

OVCAR-5 = details: OVCAR-5, Ovarian Cancer
Method: as §1

NCI-H23 = details: NCI-H23, Non-Small Cell Lung Cancer
Method: as §1

ACHN = details: Renal Cancer
Method: as §1

SK-MEL-5 = details: SK-MEL-5, Melanoma
Method: as §1

RXF 393 = test system: RXF 393
Method: as §1

A549/ATCC = details: Non-Small Cell Lung Cancer
Method: as §1

SW-620 = details: SW-620, Colon Cancer
Method: as §1

RPMI-8226 = details: RPMI-8226, Leukemia
Method: as §1

HOP-92 = details: HOP-92, Non-Small Cell Lung Cancer
Method: as §1

MALME-3M = details: Melanoma
Method: as §1

SF-539 = details: SF-539, CNS Cancer
Method: as §1

SF-268 = details: SF-268, CNS Cancer
Method: as §1

KM12 = details: KM12, Colon Cancer
Method: as §1

A498 = details: A498, Renal Cancer
Method: as §1

SK-MEL-2 = details: SK-MEL-2, Melanoma
Method: as §1

HOP-62 = details: HOP-62, Non-Small Cell Lung Cancer
Method: as §1

SR = details: Homo sapiens, Leukemia, Table 2
Method: as §1

M14 = details: M14, Melanoma
Method: as §1

OVCAR-4 = details: OVCAR-4, Ovarian Cancer
Method: as §1

SNB-75 = details: SNB-75, CNS Cancer
Method: as §1

BT-549 = details: BT-549, Breast Cancer
Method: as §1

K-562 = details: K-562, Leukemia
Method: as §1

MCF7 = details: MCF7, Breast Cancer
Method: as §1

MDA-MB-435 = details: MDA-MB-435, Melanoma
Method: as §1

COLO 205 = details: COLO 205, Colon Cancer
Method: as §1

SN12C = details: Renal Cancer
Method: as §1

OVCAR-3 = details: OVCAR-3, Ovarian Cancer
Method: as §1

T-47D = details: Breast Cancer
Method: as §1

MDA-MB-231/ATCC = details: Breast Cancer
Method: as §1

MOLT-4 = details: MOLT-4, Leukemia
Method: as §1

NCI-H226 = details: NCI-H226, Non-Small Cell Lung Cancer
Method: as §1

CAKI-1 = details: CAKI-1, Renal Cancer, Table 3
Method: as §1

TK-10 = details: TK-10, Renal Cancer, Table 3
Method: as §1

SMILES: C=C1C(=O)O[C@H]2[C@H]1CC/C(Cn1cc(-c3cc(C(F)(F)F)cc(C(F)(F)F)c3)nn1)=C\CC[C@@]1(C)O[C@@H]21 [JVM 4-29, (1aR,7aS,10aS,10bS,E)-5-((4-(3,5-bis(Trifluoromethyl)phenyl)-1H-1,2,3-triazol-1-yl)methyl)-1a-methyl-8-methylene-2,3,6,7,7a,8,10a,10b-octahydrooxireno[2′,3′:9,10]cyclodeca[1,2-b]furan-9(1aH)-one]
- GI50 (OVCAR-8; Homo sapiens, Table 2): 880 nM
- GI50 (CCRF-CEM; Homo sapiens, Table 2): 690 nM
- GI50 (UO-31; Homo sapiens, Table 2): 380 nM
- GI50 (SF-295; Homo sapiens, Table 2): 1190 nM
- GI50 (HCT-116; Homo sapiens, Table 2): 150 nM
- GI50 (NCI-H460; Homo sapiens, Table 2): 1220 nM
- GI50 (HL-60(TB); Homo sapiens, HL-60(TB), Table 2): 190 nM
- GI50 (OVCAR-5; Homo sapiens, Table 2): 1100 nM
- GI50 (NCI-H23; Homo sapiens, Table 2): 1120 nM
- GI50 (ACHN; Homo sapiens, Table 2): 160 nM
- GI50 (SK-MEL-5; Homo sapiens, Table 2): 1470 nM
- GI50 (RXF 393; Homo sapiens, RXF 393, RXF 393, Renal Cancer, Table 2): 20 nM
- GI50 (RXF 393; Homo sapiens, RXF 393, RXF 393 renal cancer cell line): 27 nM
- GI50 (A549/ATCC; Homo sapiens, Table 2): 1360 nM
- GI50 (SW-620; Homo sapiens, Table 2): 190 nM
- GI50 (RPMI-8226; Homo sapiens, Table 2): 220 nM
- GI50 (HOP-92; Homo sapiens, Table 2): 340 nM
- GI50 (MALME-3M; Homo sapiens, Table 2): 520 nM
- GI50 (SF-539; Homo sapiens, Table 2): 170 nM
- GI50 (SF-268; Homo sapiens, Table 2): 1080 nM
- GI50 (KM12; Homo sapiens, Table 2): 1040 nM
- GI50 (A498; Homo sapiens, Table 2): 430 nM
- GI50 (SK-MEL-2; Homo sapiens, Table 2): 340 nM
- GI50 (HOP-62; Homo sapiens, Table 2): 1560 nM
- GI50 (SR): 100 nM
- GI50 (M14; Homo sapiens, Table 2): 350 nM
- GI50 (OVCAR-4; Homo sapiens, Table 2): 500 nM
- GI50 (SNB-75; Homo sapiens, Table 2): 1260 nM
- GI50 (BT-549; Homo sapiens, Table 2): 170 nM
- GI50 (K-562; Homo sapiens, K562, Table 2): 230 nM
- GI50 (MCF7; Homo sapiens, Table 2): 190 nM
- GI50 (MDA-MB-435; Homo sapiens, Table 2): 740 nM
- GI50 (COLO 205; Homo sapiens, Table 2): 140 nM
- GI50 (SN12C; Homo sapiens, Table 2): 700 nM
- GI50 (OVCAR-3; Homo sapiens, Table 2): 150 nM
- GI50 (T-47D; Homo sapiens, T47D, Table 2): 330 nM
- GI50 (MDA-MB-231/ATCC; Homo sapiens, Table 2): 330 nM
- GI50 (MOLT-4; Homo sapiens, Table 2): 190 nM
- GI50 (NCI-H226; Homo sapiens, Table 2): 1650 nM

SMILES: C=C1C(=O)O[C@H]2[C@H]1CC/C(Cn1cc(-c3ccccc3C(F)(F)F)nn1)=C\CC[C@@]1(C)O[C@@H]21 [JVM 4-59]
- GI50 (OVCAR-8; Table 3): 2230 nM
- GI50 (CAKI-1): 1310 nM
- GI50 (CCRF-CEM; Table 3): 760 nM
- GI50 (UO-31; Table 3): 1230 nM
- GI50 (SF-295; Table 3): 10300 nM
- GI50 (HCT-116; Table 3): 1260 nM
- GI50 (NCI-H460; Table 3): 3970 nM
- GI50 (HL-60(TB); HL-60 (TB), Table 3): 2580 nM
- GI50 (OVCAR-5; Table 3): 2460 nM
- GI50 (NCI-H23; Table 3): 1750 nM
- GI50 (ACHN; Table 3): 1450 nM
- GI50 (SK-MEL-5; Table 3): 1720 nM
- GI50 (RXF 393; RXF 393, Renal Cancer, Table 3): 1070 nM
- GI50 (A549/ATCC; Table 3): 7230 nM
- GI50 (SW-620; Table 3): 1240 nM
- GI50 (RPMI-8226; Table 3): 1870 nM
- GI50 (HOP-92; Table 3): 1480 nM
- GI50 (MALME-3M; Table 3): 1700 nM
- GI50 (SF-539; Table 3): 1760 nM
- GI50 (SF-268; Table 3): 2090 nM
- GI50 (KM12; Table 3): 5880 nM
- GI50 (TK-10): 1710 nM
- GI50 (A498; Table 3): 3860 nM
- GI50 (SK-MEL-2; Table 3): 2450 nM
- GI50 (HOP-62; Table 3): 4730 nM
- GI50 (M14; Table 3): 2150 nM
- GI50 (OVCAR-4; Table 3): 2770 nM
- GI50 (SNB-75; Table 3): 2970 nM
- GI50 (BT-549; Table 3): 2400 nM
- GI50 (K-562; Table 3): 2400 nM
- GI50 (MCF7; Table 3): 1330 nM
- GI50 (MDA-MB-435; Table 3): 2180 nM
- GI50 (COLO 205; Table 3): 1980 nM
- GI50 (SN12C; Table 3): 2470 nM
- GI50 (OVCAR-3; Table 3): 1040 nM
- GI50 (T-47D; Table 3): 1700 nM
- GI50 (MDA-MB-231/ATCC; Table 3): 1640 nM
- GI50 (MOLT-4; Table 3): 3030 nM
- GI50 (NCI-H226; Table 3): 1730 nM

Reference: patent US10428082B2, “Triazole derivatives of melampomagnolide B and methods of use thereof” (BioVentures, LLC, priority 2016, dated 2019)
